# US6737383B1, “Herbicidal oxadiazolidines” (priority 1999, dated 2004)
# Columns and labels:
# rice = experiment: Test B flood test rice; type: in vivo, Oryza sativa
# Summary of the method: (§1)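 Each value is a visual injury score relative to controls, with 10 meaning complete control and 0 no effect. Evaluation took place twelve to sixteen days after the 2-leaf-stage plants were treated and kept in the greenhouse.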
# rape = experiment: Test B pre/postemergence rape; type: in vivo, Brassica napus
# Summary of the method: (§2)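 Test chemicals in a non-phytotoxic solvent mixture with surfactant were sprayed preemergence onto planted seeds and postemergence onto plants 2 to 18 cm tall (1- to 4-leaf stage). After twelve to sixteen days in a greenhouse, injury was visually rated against untreated controls from 0 (no effect) to 10 (complete control).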
# duck salad = experiment: Test B flood test duck salad; type: in vivo, Heteranthera limosa
# Summary of the method: as §1
# wheat = experiment: Test B pre/postemergence wheat; type: in vivo, Triticum aestivum; conditions: for Plant response rating, Wheat: Rate 250 g/ha
# Summary of the method: as §2
# morningglory = experiment: Test B pre/postemergence morningglory; type: in vivo, Ipomoea hederacea
# Summary of the method: as §2
# giant foxtail = experiment: Test B pre/postemergence giant foxtail; type: in vivo, Setaria faberii
# Summary of the method: as §2
# soybean = experiment: Test B pre/postemergence soybean; type: in vivo, Glycine max
# Summary of the method: as §2
# bamyardgrass = experiment: Test B flood test barnyardgrass; type: in vivo, Echinochloa crus-galli
# Summary of the method: as §1
# blackgrass = experiment: Test B pre/postemergence blackgrass; type: in vivo, Alopecurus myosuroides
# Summary of the method: as §2
# velvetleaf = experiment: Test B pre/postemergence velvetleaf; type: in vivo, Abutilon theophrasti; conditions: for Plant response rating, Velvetleaf: Rate 250 g/ha
# Summary of the method: as §2
# smallflower flatsedge = experiment: Test B flood test smallflower flatsedge; type: in vivo, Cyperus difformis
# Summary of the method: as §1
# wild oat = experiment: Test B pre/postemergence wild oat; type: in vivo, Avena fatua; conditions: for Plant response rating, Wild oats: Rate 250 g/ha
# Summary of the method: as §2
# pigweed = experiment: Test B pre/postemergence pigweed; type: in vivo, Amaranthus retroflexus
# Summary of the method: as §2
# purple nutsedge = experiment: Test B pre/postemergence purple nutsedge; type: in vivo, Cyperus rotundus
# Summary of the method: as §2
# sugar beet = experiment: Test B pre/postemergence sugar beet; type: in vivo, Beta vulgaris; conditions: for Plant response rating, Sugarbeets: Rate 250 g/ha
# Summary of the method: as §2
# bedstraw = experiment: Test B pre/postemergence bedstraw; type: in vivo, Galium aparine; conditions: for Bedstraw plant response rating: Postemergence; for Plant response rating, Bedstraw: Preemergence
# Summary of the method: as §2
# [1] = Postemergence (flood test species), Rate 125 g/ha, scale of 0 to 10 where 0 is no effect and 10 is complete control
# [2] = Postemergence, Rate 62 g/ha, scale 0 to 10, 0 is no effect, 10 is complete control
# [3] = Rate 250 g/ha, Postemergence (flood test), scale 0 to 10, 0 is no effect, 10 is complete control
# [4] = Rate 500 g/ha, listed under Postemergence (flood test species), scale 0 to 10, 0 no effect, 10 complete control
# [5] = Postemergence, Rate 125 g/ha, scale of 0 to 10 where 0 is no effect and 10 is complete control
# [6] = Postemergence, Rate 250 g/ha, scale 0 to 10, 0 no effect, 10 complete control
# [7] = Preemergence, Rate 62 g/ha, scale 0 to 10 (0 no effect, 10 complete control)
# [8] = Preemergence, Rate 125 g/ha, scale 0 to 10 (0 no effect, 10 complete control)
# [9] = Preemergence, Rate 250 g/ha, scale of 0 to 10 where 0 is no effect and 10 is complete control
# [10] = Preemergence, Rate 500 g/ha, scale 0 (no effect) to 10 (complete control)
# [11] = Rate 500 g/ha, Postemergence, scale 0 to 10, 0 no effect, 10 complete control
# [12] = flood test, listed under Postemergence, Rate 250 g/ha, scale 0 to 10, 0 no effect, 10 complete control
# [13] = Preemergence, Rate 125 g/ha, 0 is no effect, 10 is complete control
# [14] = Preemergence, scale of 0 to 10 where 0 is no effect and 10 is complete control
# [15] = Postemergence, scale 0 to 10, 0 is no effect, 10 is complete control
smiles,measurement,setting,value
CC(C)N(C(=O)n1oc(=O)n(-c2cnn(C)c2Cl)c1=O)c1ccc(F)cc1 [Compound 97],Rice plant response rating,rice; [1],0
same,Rice plant response rating,rice; [2],0
same,"Plant response rating, Rice",rice; [3],0
same,Rice plant response rating,rice; [4],3
same,Rape plant response rating,rape; [2],0
same,Rape plant response rating,rape; [5],0
same,Rape plant response rating,rape; [6],0
same,Rape plant response rating,rape; [7],0
same,"Plant response rating, Rape",rape; [8],0
same,"Plant response rating, Rape",rape; [9],5
same,Rape plant response rating,rape; [10],6
same,Rape plant response rating,rape; [11],3
same,Ducksalad plant response rating,duck salad; [1],0
same,Ducksalad plant response rating,duck salad; [2],0
same,Ducksalad plant response rating,duck salad; [4],2
same,Ducksalad plant response rating,duck salad; [12],2
same,Wheat plant response rating,wheat; [2],0
same,Wheat plant response rating,wheat; [5],0
same,Wheat plant response rating,wheat; [7],0
same,Wheat plant response rating (0 to 10 scale),wheat; [13],0
same,"Plant response rating, Wheat",wheat; [14],0
same,Wheat plant response rating,wheat; [10],2
same,"Plant response rating, Wheat",wheat; [15],0
same,Wheat plant response rating,wheat; [11],0
same,Morningglory plant response rating,morningglory; [2],1
same,Morningglory plant response rating,morningglory; [5],1
same,Morningglory plant response rating,morningglory; [6],3
same,Morningglory plant response rating,morningglory; [7],0
same,"Plant response rating, Morningglory",morningglory; [8],0
same,"Plant response rating, Morningglory",morningglory; [9],0
same,Morningglory plant response rating,morningglory; [10],0
same,Morningglory plant response rating,morningglory; [11],3
same,Giant foxtail plant response rating,giant foxtail; [2],0
same,Giant foxtail plant response rating,giant foxtail; [5],0
same,Giant foxtail plant response rating,giant foxtail; [6],3
same,Giant foxtail plant response rating,giant foxtail; [7],0
same,"Plant response rating, Giant foxtail",giant foxtail; [8],3
same,"Plant response rating, Giant foxtail",giant foxtail; [9],4
same,Giant foxtail plant response rating,giant foxtail; [10],8
same,Giant foxtail plant response rating,giant foxtail; [11],4
same,Soybean plant response rating,soybean; [2],0
same,Soybean plant response rating,soybean; [5],0
same,Soybean plant response rating,soybean; [7],0
same,"Plant response rating, Soybean",soybean; [8],0
same,"Plant response rating, Soybean",soybean; [9],0
same,Soybean plant response rating,soybean; [10],2
same,"Plant response rating, Soybean","soybean; Rate 250 g/ha, Postemergence, scale 0 to 10, 0 is no effect, 10 is complete control",1
same,Soybean plant response rating,soybean; [11],2
same,Barnyardgrass plant response rating,bamyardgrass; [2],0
same,Barnyardgrass plant response rating,"bamyardgrass; Rate 125 g/ha, Postemergence section (flood test species), scale 0 to 10, 0 no effect, 10 complete control",0
same,Barnyardgrass plant response rating,bamyardgrass; [4],0
same,Barnyardgrass plant response rating,bamyardgrass; [12],0
same,Blackgrass plant response rating,blackgrass; [2],0
same,Blackgrass plant response rating,blackgrass; [5],0
same,Blackgrass plant response rating,blackgrass; [6],3
same,Blackgrass plant response rating,blackgrass; [7],0
same,"Plant response rating, Blackgrass",blackgrass; [8],1
same,"Plant response rating, Blackgrass",blackgrass; [9],1
same,Blackgrass plant response rating,blackgrass; [10],3
same,Blackgrass plant response rating,blackgrass; [11],5
same,Velvetleaf plant response rating,velvetleaf; [2],0
same,Velvetleaf plant response rating,velvetleaf; [5],0
same,Velvetleaf plant response rating,velvetleaf; [7],0
same,Velvetleaf plant response rating (0 to 10 scale),velvetleaf; [13],0
same,"Plant response rating, Velvetleaf",velvetleaf; [14],0
same,Velvetleaf plant response rating,velvetleaf; [10],0
same,"Plant response rating, Velvetleaf",velvetleaf; [15],2
same,Velvetleaf plant response rating,velvetleaf; [11],3
same,S. Flatsedge plant response rating,smallflower flatsedge; [1],0
same,S. Flatsedge plant response rating,smallflower flatsedge; [2],0
same,"Plant response rating, S. Flatsedge",smallflower flatsedge; [3],0
same,S. Flatsedge plant response rating,smallflower flatsedge; [4],2
same,Wild oats plant response rating,wild oat; [2],0
same,Wild oats plant response rating,wild oat; [5],0
same,Wild oats plant response rating,wild oat; [7],0
same,Wild oats plant response rating (0 to 10 scale),wild oat; [13],2
same,"Plant response rating, Wild oats",wild oat; [14],2
same,Wild oats plant response rating,wild oat; [10],5
same,"Plant response rating, Wild oats",wild oat; [15],0
same,Wild oats plant response rating,wild oat; [11],0
same,Redroot pigweed plant response rating,pigweed; [2],0
same,Redroot pigweed plant response rating,pigweed; [5],0
same,Redroot pigweed plant response rating,pigweed; [7],0
same,"Plant response rating, Redroot pigweed",pigweed; [9],4
same,Redroot pigweed plant response rating,pigweed; [10],10
same,Redroot pigweed plant response rating,pigweed; [11],5
same,Nutsedge plant response rating,purple nutsedge; [2],0
same,Nutsedge plant response rating,purple nutsedge; [5],0
same,Nutsedge plant response rating,purple nutsedge; [6],0
same,Nutsedge plant response rating,purple nutsedge; [7],0
same,"Plant response rating, Nutsedge",purple nutsedge; [8],0
same,"Plant response rating, Nutsedge",purple nutsedge; [9],0
same,Nutsedge plant response rating,purple nutsedge; [10],0
same,Nutsedge plant response rating,purple nutsedge; [11],0
same,Sugarbeets plant response rating,sugar beet; [2],0
same,Sugarbeets plant response rating,sugar beet; [5],0
same,Sugarbeets plant response rating,sugar beet; [7],0
same,Sugarbeets plant response rating (0 to 10 scale),sugar beet; [13],3
same,"Plant response rating, Sugarbeets",sugar beet; [14],5
same,Sugarbeets plant response rating,sugar beet; [10],9
same,"Plant response rating, Sugarbeets",sugar beet; [15],0
same,Sugarbeets plant response rating,sugar beet; [11],0
same,Bedstraw plant response rating,"bedstraw; Rate 62 g/ha, scale 0 to 10, 0 is no effect, 10 is complete control",0
same,Bedstraw plant response rating,"bedstraw; Rate 250 g/ha, scale 0 to 10, 0 no effect, 10 complete control",1
same,"Plant response rating, Bedstraw","bedstraw; Rate 125 g/ha, scale 0 to 10 (0 no effect, 10 complete control)",0
same,"Plant response rating, Bedstraw","bedstraw; Rate 250 g/ha, scale of 0 to 10 where 0 is no effect and 10 is complete control",0
same,Bedstraw plant response rating,"bedstraw; Rate 125 g/ha, scale 0 to 10, 0 no effect, 10 complete control",0
same,Bedstraw plant response rating,"bedstraw; Rate 500 g/ha, scale 0 to 10, 0 no effect, 10 complete control",3
